One test has as its system ccd8 rice mutant (d10). As to the kind of experiment: Rice tillering assay. It is filed as in vivo, rice (Oryza sativa L.). The note with it: 2 μM through nutrient solution, supplied daily, tillers counted up to 12 days. The method, then: Rice seeds were surface sterilized with 2% sodium hypochlorite. The seeds were allowed to germinate in a Petri dish on a moistened filter paper. In the meanwhile bottom of 1.5 ml eppendorf tube was cut and filled with 0.6% phyto-agar. One pre-germinated seed was planted in the center of the tube on solid phytoagar and this tube was fitted in the cap of 10 ml plastic tube. The 10 ml tube was filled with modified Hoagland nutrient solution. After two weeks of planting, the compound of formula IA (2 μM) was added through nutrient solution to half of the tubes of each rice cultivars/mutants and the remaining half were kept as control. The nutrient solution with or without the compound of formula IA was supplied daily. Number of tillers per plant was counted at 24 hours interval up to 12 days of carlactone application.

In a further test the test system is Striga hermonthica seeds. As to the kind of experiment: Striga seed germination assay. The note with it: concentration of 3.3 μM; positive control, same conditions. It is filed as in vivo. The method, then: Striga Seed Germination Assay Pre-conditioning of Striga hermonthica seeds was carried out in a first step to see the effect of germination stimulants. For this purpose clean Striga seeds were surface sterilized with 2% sodium hypochlorite in sterile water containing 0.4% of Tween-20. About 50 to 100 sterilized seeds were spread on 9-mm diameter glass fibre filter paper discs. Twelve of these discs were placed in a 9-cm diameter Petri-dish on sterilized Whatman filter paper, moistened with 3.0 ml sterilized water. After sealing with parafilm, the Petri-dishes were placed in darkness in an incubator at 30° C. After 10 days of incubation, the discs with preconditioned seeds were supposed to be ready to test germination stimulant. Surplus moisture was evaporated from each petri dish in laminar flow cabinet. The dry discs were then placed in another Petri-dish (six per Petri-dish) containing a filter paper ring (outer diameter 9 cm, inner diameter 8 cm) moistened with 0.9 ml water. Various concentration of the compound of formula IA were applied (50 μl per disc) to triplicate discs. GR24, a synthetic strigolactone analogue, was applied as positive control. Subsequently, the Striga seeds were incubated in darkness at 30° C. for another 48 hours and germination (seeds with radicle protruding through the seed coat) scored with the help of a binocular microscope.

With `CC1=CC(O/C=C(C)\C=C\C2=C(C)CCCC2(C)C)OC1=O` (centres unmarked) [Compound IA], in the test on ccd8 rice mutant (d10), the tiller number result is “reduction of tiller number”. `CC1CC(O/C=C2/C(=O)OC3c4ccccc4CC23)OC1=O` (centres unmarked) [GR24] returned a germination activity with Striga hermonthica seeds of roughly 50%.

The values above are taken from US8980795B2, “Strigolactone analogues and their use” (King Abdullah University of Science and Technology, priority 2011, dated 2015).
